Results on 4 compounds are retold here after patent US10183918B2, “Oxa-azaspiro compounds having activity against pain” (LABORATORIOS DEL DR. ESTEVE S.A., priority 2015, dated 2019).

One assay deals with sigma-2 (σ2) site (Homo sapiens, UniProt Q5BJF2). Conditions: result in words, background; cited from earlier work.
Another assay deals with T1, human σ1 receptor (Homo sapiens, UniProt Q99720).
T1 construct: expressed in transfected cells; host or cells: HEK-293 (membranes)
Put plainly: Human σ1 receptor radioligand assay. Type of assay: binding. Conditions: transfected HEK-293 membranes, 5 nM [3H](+)-pentazocine as radioligand. Here is the method: Human σ1 Receptor Radioligand Assay
To investigate binding properties of test compounds to human σ1 receptor, transfected HEK-293 membranes and [^3H](+)-pentazocine (Perkin Elmer, NET-1056), as the radioligand, were used. The assay was carried out with 7 μg of membrane suspension, 5 nM of [^3H](+)-pentazocine in either absence or presence of either buffer or 10 μM Haloperidol for total and non-specific binding, respectively. Binding buffer contained Tris-HCl 50 mM at pH 8. Plates were incubated at 37° C. for 120 minutes. After the incubation period, the reaction mix was then transferred to Multiscreen HTS, FC plates (Millipore), filtered and plates were washed 3 times with ice-cold 10 mM Tris-HCL (pH7.4). Filters were dried and counted at approximately 40% efficiency in a MicroBeta scintillation counter (Perkin-Elmer) using EcoScint liquid scintillation cocktail

T1 sequence (Q99720 whole entry): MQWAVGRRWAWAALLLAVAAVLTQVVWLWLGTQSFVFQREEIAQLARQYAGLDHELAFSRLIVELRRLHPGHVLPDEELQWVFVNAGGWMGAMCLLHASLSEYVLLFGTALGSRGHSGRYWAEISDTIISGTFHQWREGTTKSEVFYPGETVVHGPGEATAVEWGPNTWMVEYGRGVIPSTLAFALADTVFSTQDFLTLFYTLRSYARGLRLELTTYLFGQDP
Sequence of sigma-2 (σ2) site (Q5BJF2 whole entry): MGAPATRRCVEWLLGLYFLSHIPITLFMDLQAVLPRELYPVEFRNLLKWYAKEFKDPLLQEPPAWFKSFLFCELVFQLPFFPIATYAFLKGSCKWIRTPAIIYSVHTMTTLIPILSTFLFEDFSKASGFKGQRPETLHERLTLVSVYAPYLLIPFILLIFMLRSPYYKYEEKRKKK

In the case of (+)SKF-10047, the “affinity for the sigma-2 (σ2) site” value on sigma-2 (σ2) site was “micromolar affinity”.
The Ki is a dissociation constant, usually derived from enzyme kinetics or from competition with a known ligand. A higher Ki goes with weaker binding. Regarding `CCN1CC(C)(C)O[C@]2(CC[C@@H](N(C)CCc3ccccc3)CC2)C1` [Example 66, (6s,9s)-4-ethyl-N,2,2-trimethyl-N-phenethyl-1-oxa-4-azaspiro[5.5]undecan-9-amine], the Ki on human σ1 receptor is < 100 nM.
Take `CN(Cc1ccccc1)[C@H]1CC[C@]2(CC1)CN(c1ccccc1)C(=O)C1(CC1)O2` [Example 14, (5r,8r)-8-[benzyl(methyl)amino]-12-phenyl-4-oxa-12-azadispiro[2.1.5.3]tridecan-13-one]: the Ki on human σ1 receptor was < 500 nM.
For the compound `CCN1C[C@]2(CC[C@H](NC)CC2)OC(C)(C)C1=O` [Example 48, (6s,9s)-4-ethyl-2,2-dimethyl-9-(methylamino)-1-oxa-4-azaspiro[5.5]undecan-3-one acetate], the Ki on human σ1 receptor was ≥ 500 nM.
